Consider 1 compound from US20100104546A1, “MODULATORS OF ANTIGEN-DEPENDENT T CELL PROLIFERATION” (CHILDREN, YOUTH AND WOMEN'S HEALTH SERVICE, priority 2007, published 2010).

SMILES strings stand for the structures. A value given as a limit tells only on which side of the number the result lay.

Data set [1] concerns circulating cytokine levels. As to the kind of experiment: Circulating cytokine levels in SRBC-sensitized mice after intravenous SRBC challenge. Format: in vivo. Conditions: serum, 80 mg/kg IP, 6 h after IV SRBC. As for the experimental part:
Mice were injected subcutaneously with SRBC. After 5 days β-oxa-21:3n-3 (80 mg/kg) or vehicle (whole mouse serum) were injected intraperitoneally. 2 hours later SRBC were injected intravenously. The blood was collected from orbital plexus at 6 hours post intravenous SRBC injection. Serum was separated and frozen immediately at −70° C. The levels of cytokine were measured using BD mouse CBA kits using a BD Array instrument (BD, La Jolla, Calif.).
The insights from these cytokine studies prompted us to investigate whether injected β-oxa-21:3n-3 could regulate cytokine levels in vivo. The β-oxa-21:3n-3- or vehicle-administered pre-immune animals were challenged intravenously with SRBC; after 6 h the serum prepared from the mouse blood and cytokine levels measured.

Data set [2] deals with Th1 and Th2 cytokines. As to the kind of experiment: Cytokine levels of mitogen-stimulated splenocytes, ex vivo. Format: in vivo, mice. Conditions: 3 days. As for the experimental part: Mice were sensitized with SRBC and after 5 days were injected with β-oxa-21:3n-3 or vehicle intraperitoneally. After 2 h spleens were removed, cell suspensions prepared and incubated in the presence of mitogens PHA/PMA or PMA/A23187. After 3 days of incubation, the culture fluids and were harvested and used to determine the levels of Th1 and Th2 cytokines. Baseline subtracted levels of cytokines plotted in the presence of vehicle or β-oxa-21:3n-3. The values represent the mean±SEM separate experiments each conducted in quintuplets.
(§1) 6-7 weeks old Balb/c mice were injected subcutaneously with 100 μl of 10% sheep red blood cells (IMVS, Inc., Adelaide, Australia) After 5 days 100 ul of β-oxa-21:3n-3 at indicated amounts were injected intraperitoneally, intravenously or gavaged orally. In another experimental set up mice were given β-tha-21:3n-3 i.p. In a third approach mice were infected subcutaneously with 100 μl of Tetanus Toxoid (2,500 Lf/ml). Then 7 days later were given β-oxa-21:3n-3. At indicated time points mice were sacrificed and spleens were removed. Single cell suspensions were prepared and white blood cells (WBC) were enriched by passing through Ficoll-Paque Plus (GE Healthcare). Cells were washed with RPMI-1640 containing 10% fetal bovine serum, 10 mM Hepes, antibiotics and glutamine (RPMI-10) and counted using an automated Cell-Dyne 3500R (Abbott, Inc. MA) instrument. Cells were viable (>98%) as judged by trypan blue exclusion. (β-oxa-21:3n-3)- or vehicle-treated mouse samples (200,000/well) were mixed either with SRBC (600,000/well) with 100 μl of Tetanus toxoid (50 Lf/ml) or phytohaemaglutinin (PHA) (2 μg/ml) or with PHA plus phorbol myristate acetate (PMA) (10 ng/ml) or with PMA plus calcium ionophore A23187 ([…]). Cells were cultured in 96 well U bottom plates (Nunc, Inc. Denmark) for 3 days (except for TT −5 days) at 37° C. under humidified air containing 5% CO2. At some instances 50 μl of supernatants were transferred to a new plate and frozen immediately at −70° C. to be used for cytokine measurements. Thymidine (50 μl, 1 μCi/well) was added at final 16 hours of culture. Cells were harvested and thymidine incorporation was determined using a beta scintillation counter.
To determine whether or not these effects were due to non-specific suppression of the immune system, we examined the production of Th1 and Th2 cytokines in mitogen-activated mononuclear leukocytes. Splenocytes from (β-oxa-21:3n-3)- or vehicle-administered pre-immune animals were cultured for 3 days in the presence of PHA-PMA or PMA-A23187. The cell culture fluids were collected and cytokines measured.

Data set [3] deals with splenocytes. The experiment in a line: Mitogen (PHA/PMA, PMA/A23187, PHA)-stimulated splenocyte adhesion and proliferation, ex vivo. The data set is classed as in vivo, mice. As for the experimental part: (A) β-oxa-21:3n-3 or vehicle was injected intraperitoneally to 5 day SRBC-sensitized mice. After 2 h splenocytes (1×10^6 cells) were cultured in a 24 well tissue culture plate (Nunc, Inc. […] Cells were fixed with 2% Para formaldehyde and inspected under a light microscopy and photographed. (B) β-oxa-21:3n-3 or vehicle was injected intraperitoneally or intravenously to 5 day SRBC-sensitized mice. After 2 h splenocytes (0.2 million) were cultured in a 96 well tissue culture plate (Nunc, Inc. Denmark) in the presence of PHA and PMA (PHA/PMA) or PMA (10 ng/ml) and A23187 ([…]) (PMA/A23187) for 3 days. Thymidine incorporation for final 16 hours of culture was determined. The data represents the mean±SEM of 3 separate experiments each conducted in quintuplets.
as §1
To assess whether or not the immunosuppression observed was restricted to antigen-dependent stimulation, we explored the effect of β-oxa-21:3n-3 on mitogen-induced splenocyte adhesion and proliferation. […] The cells were cultured for 3 days and the extent of proliferation was assessed by thymidine incorporation.

Data set [4] deals with spleen cells. The experiment in a line: Viability and composition of splenic cells by microscopy and flow cytometry. Format: in vivo, mice. As for the experimental part:
Data acquisition was performed using a BD Immunocytometry Systems four-color FACScalibur (Mountain View, Calif.), and the acquired data were analyzed using FloJo software (Tree Star Inc., Palo Alto, Calif.).
To exclude that this effect of β-oxa-21:3n-3 was not due to necrosis or apoptosis of the splenic cells, we examined the viability and composition of live splenic cells from animals treated with this fatty acid, by microscopy and flow cytometry.
For orientation: In flow cytometry, cells or beads pass a laser one at a time.

[5] abbreviates: IP- or IV-administered, 3 days culture, thymidine incorporation.

Turning to `CC/C=C\C/C=C\C/C=C\CCCCCCCCOCC(=O)O` [β-oxa-21:3n-3], in data set [1], the IFNγ conc came to 229 ± 40 pg/mL, the IL-2 conc is 73 ± 10 pg/mL, the IL-4 conc stood at 3.5 ± 2 pg/mL and the IL-5 conc is 120 ± 21 pg/mL. Further, in data set [1], the IL-6 conc worked out at 35 ± 8 pg/mL, the IL-10 conc came out at 9 ± 5 pg/mL, the IL-12 conc was 320 ± 145 pg/mL and the IL-13 conc came out at 0 ± 0 pg/mL. For the same compound, in data set [1], the KC conc was determined as 61 ± 21 pg/mL, the MCP-1 conc turned out to be 2039 ± 457 pg/mL and the TNFα conc is 15 ± 3 pg/mL. In data set [2] (PHA-PMA-stimulated splenocytes), the IL-2 secretion result is recorded as “higher levels”; the “levels of IL-4, IL-5, TNFα and IFNγ” value is “no substantial increase”. Further, in data set [2] (PMA-A23187-stimulated splenocytes), the IFNγ secretion result is “reduction”. In data set [2] (PMA-A23187-stimulated splenocytes, apart from IFNγ), the cytokine secretion result was “did not result in any substantial differences”. Moreover, in data set [3] (setting [5]), the “splenocyte proliferation in response to PHA-PMA” value is listed as “not affected in their responsiveness” and the “splenocyte proliferation in response to PMA-A23187” value is reported as “not affected in their responsiveness”. Besides, in data set [3] (PHA and PMA stimulation for 4 h, SRBC pre-sensitized mice), the splenocyte adherence result is given as “not affected”. Besides, the “splenocyte proliferation in response to PHA alone” value in data set [3] (not shown) is “did not affect”. For the same compound, in data set [4] (spleen cells from treated SRBC-sensitized mice), the “viable cells (excluded propidium iodide)” value was over 95%. Moreover, in data set [4] (spleen cells, SRBC-sensitized mice), the “viable cell numbers versus vehicle-treated mice” value was “no major difference”.
